For orientation: fold induction means the signal under treatment as a multiple of the control signal. Higher therefore signals a strong induction. The term Aqueous Solubility denotes the dissolved amount per volume that the medium holds. High values mean a readily soluble substance, low ones a poorly soluble substance.

In series [1] the test system is NO production in RAW264.7 macrophages. Briefly: Inhibition of NO production in IFNγ-treated RAW264.7 macrophages (Griess reagent). Format: cell-based, mouse. The settings on record: Mus musculus, RAW264.7, RAW264.7 macrophages pre-treated 2 hours, then 20 ng/ml IFNγ for 24 hours. The method, then:
(§1) FIGS. 1-4, 6 and 8. Inhibition of NO Production. RAW264.7 macrophages were pre-treated with DMSO or drugs at various concentrations (nM) for 2 hours, then treated with 20 ng/ml IFNγ for 24 hours. NO concentration in media was determined using a Griess reagent system; cell viability was determined using WST-1 reagent.
(§2) Nitric Oxide production and cell viability. RAW264.7 macrophages were pre-treated with DMSO or drugs for 2 hours, then treated with recombinant mouse IFNγ (Sigma) for 24 hours. NO concentration in media was determined using the Griess reagent system (Promega). Cell viability was determined using WST-1 reagent (Roche).
On the technique in general: The Griess reaction detects nitrite, a stable product of nitric oxide.

The subject of another series is RAW264.7 macrophages. Briefly: Cell viability of RAW264.7 macrophages (WST-1 reagent). Format: cell-based, mouse. The settings on record: Mus musculus, RAW264.7, 24 h, cell viability, RAW264.7, 20 ng/ml IFNγ 24 hours, WST-1 reagent; read-out: RAW264.7 (20 ng/ml IFNγ) WST-1 IC50. The method, then:
as §1, §2
For orientation: Tetrazolium dyes change colour on reduction, which living cells bring about.

In the next series the test system is HO-1. The experiment in a line: Nrf2 target gene induction, MDA-MB-435 (qPCR): HO-1. The settings on record: Homo sapiens; MDA-MB-435, 250 nM, 16 hours, mRNA by qPCR. Format: cell-based. The method, then: (§3) Nrf2 target gene induction. MDA-MB-435 human melanoma cells were treated with vehicle (DMSO) or the indicated compounds and concentrations for 16 hours. HO-1, thioredoxin reductase-1 (TrxR1), γ-glutamylcysteine synthetase (γ-GCS), and ferritin heavy chain mRNA levels were quantified using qPCR and were normalized relative to a DMSO-treated sample run in parallel. Values are averages of duplicate wells. Primer sequences are as follows.

For a further series, the system named is NQO1. Briefly: Nrf2 target gene induction, MDA-MB-435 (qPCR): NQO1. The series is classed as cell-based. The settings on record: Homo sapiens; MDA-MB-435, 250 nM, 16 hours, mRNA by qPCR. On the technique in general: In qPCR the cycle at which signal appears reflects the starting amount.
For the next series, the system named is γ-GCS. Briefly: Nrf2 target gene induction, MDA-MB-435 (qPCR): γ-GCS. Format: cell-based. The settings on record: Homo sapiens; MDA-MB-435, 250 nM, 16 hours, mRNA by qPCR. The method, then: as §3
The nature of series [2]: Aqueous solubility determination (Millipore Multiscreen solubility filter plate, UV/vis). The series is classed as physicochemical. The settings on record: Universal Aqueous Buffer pH 7.4, 90 minutes at room temperature. As to the method: Aqueous Solubility Determination. The following procedure was used to obtain the aqueous solubility results summarized in Example 4. Step 1. Determination of optimal UV/vis wavelengths and generation of standard curves for a compound of interest: • (1) For eight standard calibration curves (one plate), prepare 34 mL of 50:50 (v:v) universal buffer:acetonitrile in a 50 mL tube. • (2) Using a multichannel pipet, dispense (in μL) the buffer:acetonitrile in a deep well plate as follows:
• (6) Cover plate with lid and shake (200-300 rpm) at room temperature for 20 minutes. • (7) Mix all wells by pipetting up and down 10 times. • (8) Transfer 120 μL from each well to a UV transparent plate. Cover and shake for 3-5 minutes. Remove any bubbles in the wells using a pipet. • (9) Read from 220 nm to 500 nm at 10 nm increments on a spectrophotometer (e.g., SpectraMax®).
Step 2. […]
Solubility Protocol: • (a) Add 285 μL of Universal Aqueous Buffer to desired wells of the Millipore™ Multiscreen® Solubility filter plate. • (b) Add 15 μL of 10 mM compound in DMSO to the appropriate wells. […] Remove any bubbles with a pipet. • (i) Measure the absorbance of each well in the plate on the spectrophotometer (UV/vis) at the desired wavelength. […]
The aqueous solubility of the compounds shown here was determined using the procedures outlined in Example 1.

A short description of series [3]: TP levels in mouse brain after feeding in diet (LC/MS). The series is classed as in vivo. The settings on record: CD-1 mice fed 200 or 400 mg/kg diet for 3.5 days. The method, then:
FIG. 7. […] CD-1 mice were fed either 200 or 400 mg/kg diet of either TP-319 or TP-500 for 3.5 days, and TP levels in the brains of the mice were analyzed by LC/MS. The structures of TP-319 and TP-500 are shown herein.

With `CC1(C)CC[C@]2(CNCC#N)CC[C@]3(C)[C@H](C(=O)C[C@@H]4[C@@]5(C)C=C(C#N)C(=O)C(C)(C)[C@@H]5CC[C@]43C)[C@@H]2C1` [Compound 63218, (4aR,6aR,6bR,8aS,12aS,12bR,14aR,14bR)-8a-((cyanomethylamino)methyl)-4,4,6a,6b,11,11,14b-heptamethyl-3,13-dioxo-3,4,4a,5,6,6a,6b,7,8,8a,9,10,11,12,12a,12b,13,14,14a,14b-icosahydropicene-2-carbonitrile], the IC50 in series [1] was approximately 25 nM; in the series with RAW264.7 macrophages, more than 200 nM. For the same compound, the fold induction at 0.25 µM in the series with HO-1 is 3; with NQO1 it was 3.4; in the series with γ-GCS, 10.
On the same counts, the results for `CC1(C)CC[C@]2([C@@H](O)CO)CC[C@]3(C)[C@H](C(=O)C[C@@H]4[C@@]5(C)C=C(C#N)C(=O)C(C)(C)[C@@H]5CC[C@]43C)[C@@H]2C1` [Compound 63221, (4aR,6aR,6bR,8aS,12aS,12bR,14aR,14bR)-8a-((R)-1,2-dihydroxyethyl)-4,4,6a,6b,11,11,14b-heptamethyl-3,13-dioxo-3,4,4a,5,6,6a,6b,7,8,8a,9,10,11,12,12a,12b,13,14,14a,14b-icosahydropicene-2-carbonitrile] are approximately 15 nM, more than 200 nM, 2, 2 and 4.5.
For `CC1(C)CC[C@]2(N)CC[C@]3(C)[C@H](C(=O)C[C@@H]4[C@@]5(C)C=C(C#N)C(=O)C(C)(C)[C@@H]5CC[C@]43C)[C@@H]2C1` [Compound 63208], the “Aqueous Solubility” value in series [2] is 9.49 µM.
Take `CC1(C)CC[C@]2(C(=O)NCC(F)(F)F)CC[C@]3(C)[C@H](C(=O)C=C4[C@@]5(C)C=C(C#N)C(=O)C(C)(C)[C@@H]5CC[C@]43C)[C@@H]2C1` [TP-500]: the “TP levels in the brains of the mice” value in series [3] is given as “Higher Levels in Mouse Brain than CDDO-EA (TP-319)”.
On to `CC1(C)CC[C@@]23CC[C@@]4(C)[C@]5(C)CC[C@H]6C(C)(C)C(=O)C(C#N)=C[C@]6(C)[C@H]5CC(=O)[C@]4(OC2CO)[C@@H]3C1` (some centres unmarked) [Compound 63224], for which the IC50 in series [1] is approximately 20 nM; with RAW264.7 macrophages, more than 200 nM. The fold induction at 0.25 µM in the series on HO-1 is 4; in the series with NQO1, 2.5; in the series with γ-GCS it was 8.
Turning to `CC1(C)CC[C@]2(N)CC[C@]3(C)[C@H](C(=O)C[C@@H]4[C@@]5(C)C=C(C#N)C(=O)C(C)(C)[C@@H]5CC[C@]43C)[C@@H]2C1` [Compound 63198], in series [2], the “Aqueous Solubility” value amounted to 163.6 µM.
For the compound `CC1(C)CC[C@]2(CNS(=O)(=O)CC(F)(F)F)CC[C@]3(C)[C@H](C(=O)C[C@@H]4[C@@]5(C)C=C(C#N)C(=O)C(C)(C)[C@@H]5CC[C@]43C)[C@@H]2C1` [Compound 63225, N-(((4aS,6aR,6bR,8aR,12aR,12bR,14aR,14bS)-11-cyano-2,2,6a,6b,9,9,12a-heptamethyl-10,14-dioxo-1,2,3,4,4a,5,6,6a,6b,7,8,8a,9,10,12a,12b,13,14,14a,14b-icosahydropicen-4a-yl)methyl)-2,2,2-trifluoroethanesulfonamide], the IC50 in series [1] was approximately 20 nM; in the series on RAW264.7 macrophages, more than 200 nM. Moreover, the fold induction at 0.25 µM in the series on HO-1 turned out to be 4; in the series with NQO1, 2.4; with γ-GCS, 6.5.
The matching figures for `Cc1cc(CNC[C@]23CCC(C)(C)C[C@H]2[C@H]2C(=O)C[C@@H]4[C@@]5(C)C=C(C#N)C(=O)C(C)(C)[C@@H]5CC[C@@]4(C)[C@]2(C)CC3)no1` [Compound 63232, (4aR,6aR,6bR,8aS,12aS,12bR,14aR,14bR)-4,4,6a,6b,11,11,14b-heptamethyl-8a-(((5-methylisoxazol-3-yl)methylamino)methyl)-3,13-dioxo-3,4,4a,5,6,6a,6b,7,8,8a,9,10,11,12,12a,12b,13,14,14a,14b-icosahydropicene-2-carbonitrile]: approximately 20 nM, more than 200 nM, 5, 3.8 and 13.6.
The matching figures for `CC1(C)CC[C@]2(CCO)CC[C@]3(C)[C@H](C(=O)C[C@@H]4[C@@]5(C)C=C(C#N)C(=O)C(C)(C)[C@@H]5CC[C@]43C)[C@@H]2C1` [Compound 63231, (4aR,6aR,6bR,8aR,12aS,12bR,14aR,14bR)-8a-(2-hydroxyethyl)-4,4,6a,6b,11,11,14b-heptamethyl-3,13-dioxo-3,4,4a,5,6,6a,6b,7,8,8a,9,10,11,12,12a,12b,13,14,14a,14b-icosahydropicene-2-carbonitrile]: approximately 15 nM, more than 200 nM, 1.2, 2.1 and 5.
For the compound `CC1(C)CC[C@]2(CNC(=O)C(F)(F)F)CC[C@]3(C)[C@H](C(=O)C[C@@H]4[C@@]5(C)C=C(C#N)C(=O)C(C)(C)[C@@H]5CC[C@]43C)[C@@H]2C1` [Compound 63226, N-(((4aS,6aR,6bR,12aR,14aR,14bS)-11-cyano-2,2,6a,6b,9,9,12a-heptamethyl-10,14-dioxo-1,2,3,4,4a,5,6,6a,6b,7,8,8a,9,10,12a,12b,13,14,14a,14b-icosahydropicen-4a-yl)methyl)-2,2,2-trifluoroacetamide], the IC50 is approximately 12 nM in series [1] and more than 200 nM in the series with RAW264.7 macrophages. In addition, the figures for the fold induction at 0.25 µM in the series with HO-1, in the series with NQO1 and in the series with γ-GCS were 4, 2 and 6, respectively.

The values are drawn from patent publication US8394967B2, “Antioxidant inflammation modulators: C-17 homologated oleanolic acid derivatives” (Reata Pharmaceuticals, Inc., priority 2008, dated 2013).
